The results in this text go back to patent US20230063238A1, “IMMUNOMODULATORS” (Bristol-Myers Squibb Company, priority 2020, published 2023).

Starred links: 1 amine or outer side, 2 acyl side, 3 side chain; linkers in the order of their positions; H or OH if unused. Positions of bridges follow the written chain, without caps; N, C: chain ends. Non-standard residues stand in square brackets, D forms with d. Residues, ends and D or L forms follow the SMILES beside them. *: point of attachment. Trp(1-CH2CO2Me) = COC(=O)Cn1cc(C[C@H](N)C(=O)O)c2ccccc21; Trp(1-CH2COOH) = N[C@@H](Cc1cn(CC(=O)O)c2ccccc12)C(=O)O; Hyp = O=C(O)[C@@H]1C[C@@H](O)CN1; X8 = O=C(Nc1cc(F)cc(F)c1)C(=O)*; X5 = O=C(C(=O)*)N1CCc2ccccc2C1; Oxalyl = O=C(C(=O)[*:2])[*:1]; X3 = O=C(NCc1ccc(F)cc1)C(=O)*; NMeNle = CCCC[C@H](NC)C(=O)O; X10 = Cc1cc(NC(=O)C(=O)*)no1; X2 = CCc1nnc(NC(=O)C(=O)*)s1; X4 = O=C(Nc1cccc(F)c1)C(=O)*; X6 = CN1CCN(C(=O)C(=O)*)CC1; X1 = O=C(Oc1ccccc1)C(=O)*; NMeA = CN[C@@H](C)C(=O)O; Dab = NCC[C@H](N)C(=O)O; Dap = NC[C@H](N)C(=O)O; Oxamoyl = NC(=O)C(=O)*; X7 = CN(C)C(=O)C(=O)*

The target of this assay is T1, PD-1/PD-L1 (Homo sapiens, UniProt Q9NZQ7).
T1 construct: TVMV protease site linker (C); made in house; host or cells: HEK293T cells
T1 sequence (Q9NZQ7 18-239): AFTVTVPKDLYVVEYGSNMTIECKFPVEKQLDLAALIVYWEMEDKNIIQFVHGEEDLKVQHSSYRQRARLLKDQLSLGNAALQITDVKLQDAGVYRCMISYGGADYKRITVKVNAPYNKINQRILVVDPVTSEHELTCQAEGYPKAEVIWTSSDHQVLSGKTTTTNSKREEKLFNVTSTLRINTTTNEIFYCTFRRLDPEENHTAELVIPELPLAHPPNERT
As to the kind of experiment: PD-1/PD-L1 Homogenous Time-Resolved Fluorescence (HTRF) binding assay. Particulars: PD-L1-His 10 nM final, PD-1-Ig 20 nM final; inhibitors pre-incubated with PD-L1-His for 15 m. The source says:
The ability of the compounds of formula (I) to bind to PD-L1 was investigated using a PD-1/PD-L1 Homogenous Time-Resolved Fluorescence (HTRF) binding assay.
Homogenous Time-Resolved Fluorescence (HTRF) Binding Assay
The interaction of PD-1 and PD-L1 can be assessed using soluble, purified preparations of the extracellular domains of the two proteins. The PD-1 and PD-L1 protein extracellular domains were expressed as fusion proteins with detection tags, for PD-1, the tag was the Fc portion of Immunoglobulin (PD-1-Ig) and for PD-L1 it was the 6 histidine motif (PD-L1-His). All binding studies were performed in an HTRF assay buffer consisting of dPBS supplemented with 0.1% […] bovine serum albumin and 0.05% (v/v) Tween-20. For the h/PD-L1-His binding assay, inhibitors were pre-incubated with PD-L1-His (10 nM final) for 15 m in 4 μl of assay buffer, followed by addition of PD-1-Ig (20 nM final) in 1 μl of assay buffer and further incubation for 15m. HTRF detection was achieved using europium crypate-labeled anti-Ig (1 nM final) and allophycocyanin (APC) labeled anti-His (20 nM final). Antibodies were diluted in HTRF detection buffer and 5 μl was dispensed on top of the binding reaction. The reaction mixture was allowed to equilibrate for 30 minutes and the resulting signal (665 nm/620 nm ratio) was obtained using an EnVision fluorometer. Additional binding assays were established between the human proteins PD-1-Ig/PD-L2-His (20 & 5 nM, respectively) and CD80-His/PD-L1-Ig (100 & 10 nM, respectively).
Recombinant Proteins: Human PD-1 (25-167) with a C-terminal human Fc domain of immunoglobulin G (Ig) epitope tag [hPD-1 (25-167)-3S-IG] and human PD-L1 (18-239) with a C-terminal His epitope tag [hPD-L1(18-239)-TVMV-His] were expressed in HEK293T cells and purified sequentially by ProteinA affinity chromatography and size exclusion chromatography. Human PD-L2-His and CD80-His was obtained through commercial sources.
Table 1 lists the IC50 values for representative examples of this disclosure measured in the PD-1/PD-L1 Homogenous Time-Resolved Fluorescence (HTRF) binding assay.
Broadly, the IC50 is the concentration needed to halve the response being measured. A higher IC50 goes with lower potency. In turn, `CCCC[C@H]1C(=O)N(C)[C@@H](CCCC)C(=O)N[C@@H](CC(C)C)C(=O)N[C@H](C(=O)NCC(N)=O)CSCC(=O)N[C@@H](Cc2ccc(O)cc2)C(=O)N(C)[C@@H](C)C(=O)N[C@@H](CC(N)=O)C(=O)N2CCC[C@H]2C(=O)N[C@@H](CNC(=O)C(=O)Oc2ccccc2)C(=O)N[C@@H](CC(C)C)C(=O)N2C[C@H](O)C[C@H]2C(=O)N[C@@H](Cc2c[nH]c3ccccc23)C(=O)N[C@@H](CCNC(=O)C(=O)Oc2ccccc2)C(=O)N[C@@H](Cc2cn(CC(=O)O)c3ccccc23)C(=O)N1C` [Compound 1001] ({CH2CO}-Y[NMeA]NP[Dap](X1)L[Hyp]W[Dab](X1)[Trp(1-CH2COOH)][NMeNle][NMeNle]LCG-NH2; thioether N-14) had an IC50 of 5.4 nM.

The compound `CCCC[C@H]1C(=O)N(C)[C@@H](CCCC)C(=O)N[C@@H](CC(C)C)C(=O)N[C@H](C(=O)NCC(N)=O)CSCC(=O)N[C@@H](Cc2ccc(O)cc2)C(=O)N(C)[C@@H](C)C(=O)N[C@@H](CC(N)=O)C(=O)N2CCC[C@H]2C(=O)N[C@@H](CNC(=O)C(=O)O)C(=O)N[C@@H](CC(C)C)C(=O)N2C[C@H](O)C[C@H]2C(=O)N[C@@H](Cc2c[nH]c3ccccc23)C(=O)N[C@@H](CCN)C(=O)N[C@@H](Cc2cn(CC(=O)OC)c3ccccc23)C(=O)N1C` [Compound 1002] ({CH2CO}-Y[NMeA]NP[Dap](Oxalyl)L[Hyp]W[Dab][Trp(1-CH2CO2Me)][NMeNle][NMeNle]LCG-NH2; thioether N-14) came in with a 50% inhibitory concentration (IC50) of 3.1 nM.

`CCCC[C@H]1C(=O)N(C)[C@@H](CCCC)C(=O)N[C@@H](CC(C)C)C(=O)N[C@H](C(=O)NCC(N)=O)CSCC(=O)N[C@@H](Cc2ccc(O)cc2)C(=O)N(C)[C@@H](C)C(=O)N[C@@H](CC(N)=O)C(=O)N2CCC[C@H]2C(=O)N[C@@H](CNC(=O)C(=O)N2CCc3ccccc3C2)C(=O)N[C@@H](CC(C)C)C(=O)N2C[C@H](O)C[C@H]2C(=O)N[C@@H](Cc2c[nH]c3ccccc23)C(=O)N[C@@H](CCNC(=O)C(=O)N2CCc3ccccc3C2)C(=O)N[C@@H](Cc2cn(CC(=O)OC)c3ccccc23)C(=O)N1C` [Compound 2001] ({CH2CO}-Y[NMeA]NP[Dap](X5)L[Hyp]W[Dab](X5)[Trp(1-CH2CO2Me)][NMeNle][NMeNle]LCG-NH2; thioether N-14) had an IC50 of 3.4 nM.

In turn, `CCCC[C@H]1C(=O)N(C)[C@@H](CCCC)C(=O)N[C@@H](CC(C)C)C(=O)N[C@H](C(=O)NCC(N)=O)CSCC(=O)N[C@@H](Cc2ccc(O)cc2)C(=O)N(C)[C@@H](C)C(=O)N[C@@H](CC(N)=O)C(=O)N2CCC[C@H]2C(=O)N[C@@H](CNC(=O)C(=O)Nc2cc(F)cc(F)c2)C(=O)N[C@@H](CC(C)C)C(=O)N2C[C@H](O)C[C@H]2C(=O)N[C@@H](Cc2c[nH]c3ccccc23)C(=O)N[C@@H](CCNC(=O)C(=O)Nc2cc(F)cc(F)c2)C(=O)N[C@@H](Cc2cn(CC(=O)OC)c3ccccc23)C(=O)N1C` [Compound 2002] ({CH2CO}-Y[NMeA]NP[Dap](X8)L[Hyp]W[Dab](X8)[Trp(1-CH2CO2Me)][NMeNle][NMeNle]LCG-NH2; thioether N-14) had an IC50 of 350 nM.

Take `CCCC[C@H]1C(=O)N(C)[C@@H](CCCC)C(=O)N[C@@H](CC(C)C)C(=O)N[C@H](C(=O)NCC(N)=O)CSCC(=O)N[C@@H](Cc2ccc(O)cc2)C(=O)N(C)[C@@H](C)C(=O)N[C@@H](CC(N)=O)C(=O)N2CCC[C@H]2C(=O)N[C@@H](CNC(=O)C(=O)Nc2cccc(F)c2)C(=O)N[C@@H](CC(C)C)C(=O)N2C[C@H](O)C[C@H]2C(=O)N[C@@H](Cc2c[nH]c3ccccc23)C(=O)N[C@@H](CCNC(=O)C(=O)Nc2cccc(F)c2)C(=O)N[C@@H](Cc2cn(CC(=O)OC)c3ccccc23)C(=O)N1C` [Compound 2003] ({CH2CO}-Y[NMeA]NP[Dap](X4)L[Hyp]W[Dab](X4)[Trp(1-CH2CO2Me)][NMeNle][NMeNle]LCG-NH2; thioether N-14): the IC50 was 370 nM.

For the compound `CCCC[C@H]1C(=O)N(C)[C@@H](CCCC)C(=O)N[C@@H](CC(C)C)C(=O)N[C@H](C(=O)NCC(N)=O)CSCC(=O)N[C@@H](Cc2ccc(O)cc2)C(=O)N(C)[C@@H](C)C(=O)N[C@@H](CC(N)=O)C(=O)N2CCC[C@H]2C(=O)N[C@@H](CNC(=O)C(=O)Nc2cc(C)on2)C(=O)N[C@@H](CC(C)C)C(=O)N2C[C@H](O)C[C@H]2C(=O)N[C@@H](Cc2c[nH]c3ccccc23)C(=O)N[C@@H](CCNC(=O)C(=O)Nc2cc(C)on2)C(=O)N[C@@H](Cc2cn(CC(=O)OC)c3ccccc23)C(=O)N1C` [Compound 2004] ({CH2CO}-Y[NMeA]NP[Dap](X10)L[Hyp]W[Dab](X10)[Trp(1-CH2CO2Me)][NMeNle][NMeNle]LCG-NH2; thioether N-14), the IC50 is 3 nM.

`CCCC[C@H]1C(=O)N(C)[C@@H](CCCC)C(=O)N[C@@H](CC(C)C)C(=O)N[C@H](C(=O)NCC(N)=O)CSCC(=O)N[C@@H](Cc2ccc(O)cc2)C(=O)N(C)[C@@H](C)C(=O)N[C@@H](CC(N)=O)C(=O)N2CCC[C@H]2C(=O)N[C@@H](CNC(=O)C(=O)N(C)C)C(=O)N[C@@H](CC(C)C)C(=O)N2C[C@H](O)C[C@H]2C(=O)N[C@@H](Cc2c[nH]c3ccccc23)C(=O)N[C@@H](CCNC(=O)C(=O)N(C)C)C(=O)N[C@@H](Cc2cn(CC(=O)OC)c3ccccc23)C(=O)N1C` [Compound 2005] ({CH2CO}-Y[NMeA]NP[Dap](X7)L[Hyp]W[Dab](X7)[Trp(1-CH2CO2Me)][NMeNle][NMeNle]LCG-NH2; thioether N-14) had an IC50 of 2.4 nM.

`CCCC[C@H]1C(=O)N(C)[C@@H](CCCC)C(=O)N[C@@H](CC(C)C)C(=O)N[C@H](C(=O)NCC(N)=O)CSCC(=O)N[C@@H](Cc2ccc(O)cc2)C(=O)N(C)[C@@H](C)C(=O)N[C@@H](CC(N)=O)C(=O)N2CCC[C@H]2C(=O)N[C@@H](CNC(=O)C(N)=O)C(=O)N[C@@H](CC(C)C)C(=O)N2C[C@H](O)C[C@H]2C(=O)N[C@@H](Cc2c[nH]c3ccccc23)C(=O)N[C@@H](CCNC(=O)C(N)=O)C(=O)N[C@@H](Cc2cn(CC(=O)OC)c3ccccc23)C(=O)N1C` [Compound 2006] ({CH2CO}-Y[NMeA]NP[Dap](Oxamoyl)L[Hyp]W[Dab](Oxamoyl)[Trp(1-CH2CO2Me)][NMeNle][NMeNle]LCG-NH2; thioether N-14): the 50% inhibitory concentration (IC50) came to 2.7 nM.

In turn, `CCCC[C@H]1C(=O)N(C)[C@@H](CCCC)C(=O)N[C@@H](CC(C)C)C(=O)N[C@H](C(=O)NCC(N)=O)CSCC(=O)N[C@@H](Cc2ccc(O)cc2)C(=O)N(C)[C@@H](C)C(=O)N[C@@H](CC(N)=O)C(=O)N2CCC[C@H]2C(=O)N[C@@H](CNC(=O)C(=O)N2CCN(C)CC2)C(=O)N[C@@H](CC(C)C)C(=O)N2C[C@H](O)C[C@H]2C(=O)N[C@@H](Cc2c[nH]c3ccccc23)C(=O)N[C@@H](CCNC(=O)C(=O)N2CCN(C)CC2)C(=O)N[C@@H](Cc2cn(CC(=O)OC)c3ccccc23)C(=O)N1C` [Compound 2007] ({CH2CO}-Y[NMeA]NP[Dap](X6)L[Hyp]W[Dab](X6)[Trp(1-CH2CO2Me)][NMeNle][NMeNle]LCG-NH2; thioether N-14) gave an IC50 of 9.1 nM.

As for `CCCC[C@H]1C(=O)N(C)[C@@H](CCCC)C(=O)N[C@@H](CC(C)C)C(=O)N[C@H](C(=O)NCC(N)=O)CSCC(=O)N[C@@H](Cc2ccc(O)cc2)C(=O)N(C)[C@@H](C)C(=O)N[C@@H](CC(N)=O)C(=O)N2CCC[C@H]2C(=O)N[C@@H](CNC(=O)C(=O)Nc2nnc(CC)s2)C(=O)N[C@@H](CC(C)C)C(=O)N2C[C@H](O)C[C@H]2C(=O)N[C@@H](Cc2c[nH]c3ccccc23)C(=O)N[C@@H](CCNC(=O)C(=O)Nc2nnc(CC)s2)C(=O)N[C@@H](Cc2cn(CC(=O)OC)c3ccccc23)C(=O)N1C` [Compound 2008] ({CH2CO}-Y[NMeA]NP[Dap](X2)L[Hyp]W[Dab](X2)[Trp(1-CH2CO2Me)][NMeNle][NMeNle]LCG-NH2; thioether N-14), the 50% inhibitory concentration (IC50) came to 3.2 nM.

With `CCCC[C@H]1C(=O)N(C)[C@@H](CCCC)C(=O)N[C@@H](CC(C)C)C(=O)N[C@H](C(=O)NCC(N)=O)CSCC(=O)N[C@@H](Cc2ccc(O)cc2)C(=O)N(C)[C@@H](C)C(=O)N[C@@H](CC(N)=O)C(=O)N2CCC[C@H]2C(=O)N[C@@H](CNC(=O)C(=O)NCc2ccc(F)cc2)C(=O)N[C@@H](CC(C)C)C(=O)N2C[C@H](O)C[C@H]2C(=O)N[C@@H](Cc2c[nH]c3ccccc23)C(=O)N[C@@H](CCNC(=O)C(=O)NCc2ccc(F)cc2)C(=O)N[C@@H](Cc2cn(CC(=O)OC)c3ccccc23)C(=O)N1C` [Compound 2009] ({CH2CO}-Y[NMeA]NP[Dap](X3)L[Hyp]W[Dab](X3)[Trp(1-CH2CO2Me)][NMeNle][NMeNle]LCG-NH2; thioether N-14), the IC50 came out at 1.2 nM.
